ChEMBL document CHEMBL4507319 (2021)

Assays:
[1] = target: Leucine-rich repeat serine/threonine-protein kinase 2 (Homo sapiens) (UniProt Q5S007); test: LRRK2(h) Eurofins kinase panel; conditions: Compound concentration 1.0 uM
[2] = tested on: A549; test: A549 cell line Proliferation assay; format: functional, Homo sapiens; conditions: time 3 day
[3] = target: Proto-oncogene tyrosine-protein kinase receptor Ret (Homo sapiens) (UniProt P07949); test: Ret(h) Eurofins kinase panel; conditions: Compound concentration 1.0 uM
Chain of Proto-oncogene tyrosine-protein kinase receptor Ret (Homo sapiens) (P07949 whole entry): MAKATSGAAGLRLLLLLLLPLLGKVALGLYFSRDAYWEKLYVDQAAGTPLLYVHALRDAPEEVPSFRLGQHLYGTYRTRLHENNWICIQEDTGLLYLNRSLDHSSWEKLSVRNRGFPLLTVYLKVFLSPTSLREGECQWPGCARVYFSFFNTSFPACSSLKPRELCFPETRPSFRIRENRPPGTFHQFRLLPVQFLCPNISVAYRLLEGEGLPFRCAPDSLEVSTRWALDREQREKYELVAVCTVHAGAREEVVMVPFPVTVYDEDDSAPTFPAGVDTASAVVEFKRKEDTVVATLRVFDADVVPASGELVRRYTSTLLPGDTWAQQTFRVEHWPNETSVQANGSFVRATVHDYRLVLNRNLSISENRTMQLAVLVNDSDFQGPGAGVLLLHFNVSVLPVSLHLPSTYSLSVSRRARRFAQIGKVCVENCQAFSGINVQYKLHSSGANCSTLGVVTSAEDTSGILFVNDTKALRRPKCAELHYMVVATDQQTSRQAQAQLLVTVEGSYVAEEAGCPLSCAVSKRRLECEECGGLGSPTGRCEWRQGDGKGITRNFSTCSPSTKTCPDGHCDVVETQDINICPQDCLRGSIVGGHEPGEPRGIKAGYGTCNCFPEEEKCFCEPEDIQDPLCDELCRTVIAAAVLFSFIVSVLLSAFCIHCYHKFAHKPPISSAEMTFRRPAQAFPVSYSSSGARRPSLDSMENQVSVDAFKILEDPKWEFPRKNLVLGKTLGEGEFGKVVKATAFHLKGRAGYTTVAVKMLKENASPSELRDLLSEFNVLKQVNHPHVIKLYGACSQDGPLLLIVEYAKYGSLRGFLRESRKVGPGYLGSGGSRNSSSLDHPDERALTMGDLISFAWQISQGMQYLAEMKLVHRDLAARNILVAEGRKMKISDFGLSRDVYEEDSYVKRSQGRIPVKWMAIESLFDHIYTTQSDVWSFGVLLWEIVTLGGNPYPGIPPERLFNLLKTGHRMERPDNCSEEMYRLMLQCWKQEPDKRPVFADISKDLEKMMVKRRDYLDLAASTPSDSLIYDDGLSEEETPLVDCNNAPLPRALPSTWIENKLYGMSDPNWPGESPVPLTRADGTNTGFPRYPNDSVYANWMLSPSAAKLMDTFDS

[4] = target: T1, Rhodopsin kinase GRK1 (Homo sapiens) (UniProt Q15835); test: GRK1(h) Eurofins kinase panel; conditions: Compound concentration 1.0 uM
T1 sequence (whole entry): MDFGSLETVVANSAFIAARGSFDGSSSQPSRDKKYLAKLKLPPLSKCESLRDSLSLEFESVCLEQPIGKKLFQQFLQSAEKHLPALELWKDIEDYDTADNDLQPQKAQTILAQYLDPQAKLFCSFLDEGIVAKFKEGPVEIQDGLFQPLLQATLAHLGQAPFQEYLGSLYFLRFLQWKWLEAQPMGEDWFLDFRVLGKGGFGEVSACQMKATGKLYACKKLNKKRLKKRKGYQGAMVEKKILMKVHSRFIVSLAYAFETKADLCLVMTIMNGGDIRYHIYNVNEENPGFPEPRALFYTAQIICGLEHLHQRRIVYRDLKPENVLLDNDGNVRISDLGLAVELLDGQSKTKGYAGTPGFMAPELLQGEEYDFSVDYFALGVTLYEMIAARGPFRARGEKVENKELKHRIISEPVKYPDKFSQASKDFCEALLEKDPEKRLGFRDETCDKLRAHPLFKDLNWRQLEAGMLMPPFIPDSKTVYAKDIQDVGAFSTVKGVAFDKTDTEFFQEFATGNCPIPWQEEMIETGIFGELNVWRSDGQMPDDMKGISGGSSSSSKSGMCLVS

[5] = target: Wee1-like protein kinase (Homo sapiens) (UniProt P30291); test: Wee1(h) Eurofins kinase panel; conditions: Compound concentration 1.0 uM
Chain of Wee1-like protein kinase (Homo sapiens) (P30291 whole entry, looked up): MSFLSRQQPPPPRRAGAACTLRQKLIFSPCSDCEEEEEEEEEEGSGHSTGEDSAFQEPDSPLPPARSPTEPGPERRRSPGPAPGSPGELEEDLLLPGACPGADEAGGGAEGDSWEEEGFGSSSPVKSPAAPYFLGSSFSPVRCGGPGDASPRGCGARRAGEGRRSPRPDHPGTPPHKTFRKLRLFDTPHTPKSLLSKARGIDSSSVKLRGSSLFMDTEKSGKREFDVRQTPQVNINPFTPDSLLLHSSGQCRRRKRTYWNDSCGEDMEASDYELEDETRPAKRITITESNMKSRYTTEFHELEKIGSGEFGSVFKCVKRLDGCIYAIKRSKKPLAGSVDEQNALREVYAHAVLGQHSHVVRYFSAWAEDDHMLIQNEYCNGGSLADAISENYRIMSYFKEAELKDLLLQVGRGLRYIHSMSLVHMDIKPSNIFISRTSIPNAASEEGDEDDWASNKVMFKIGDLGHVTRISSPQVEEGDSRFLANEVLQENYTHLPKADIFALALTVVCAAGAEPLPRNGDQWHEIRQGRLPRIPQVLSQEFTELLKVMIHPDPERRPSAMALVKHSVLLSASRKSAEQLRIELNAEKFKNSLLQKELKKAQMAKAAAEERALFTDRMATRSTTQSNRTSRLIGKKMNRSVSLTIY

[6] = target: Tyrosine-protein kinase JAK1 (Homo sapiens) (UniProt P23458); test: JAK1(h) Eurofins kinase panel; conditions: Compound concentration 1.0 uM
[7] = target: Tyrosine-protein kinase Lyn (Homo sapiens) (UniProt P07948); test: Lyn(h) Eurofins kinase panel; conditions: Compound concentration 1.0 uM
Chain of Tyrosine-protein kinase Lyn (Homo sapiens) (P07948 2-512 limits assumed): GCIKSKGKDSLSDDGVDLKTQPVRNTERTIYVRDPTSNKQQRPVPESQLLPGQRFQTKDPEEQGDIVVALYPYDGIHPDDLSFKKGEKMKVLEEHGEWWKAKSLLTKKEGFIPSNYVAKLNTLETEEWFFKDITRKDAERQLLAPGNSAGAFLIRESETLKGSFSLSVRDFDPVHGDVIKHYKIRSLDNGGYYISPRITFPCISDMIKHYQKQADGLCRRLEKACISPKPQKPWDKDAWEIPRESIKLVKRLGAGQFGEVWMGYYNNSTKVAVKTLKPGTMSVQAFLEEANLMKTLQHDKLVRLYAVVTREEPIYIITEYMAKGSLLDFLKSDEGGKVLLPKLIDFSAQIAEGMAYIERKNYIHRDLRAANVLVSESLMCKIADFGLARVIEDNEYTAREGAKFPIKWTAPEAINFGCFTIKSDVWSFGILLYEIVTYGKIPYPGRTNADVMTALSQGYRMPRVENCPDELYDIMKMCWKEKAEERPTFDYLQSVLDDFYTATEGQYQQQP

[8] = target: T2, cGMP-dependent protein kinase 1 (Homo sapiens) (UniProt Q13976); test: PKG1alpha (h) Eurofins kinase panel; conditions: Compound concentration 1.0 uM
T2 sequence (whole entry): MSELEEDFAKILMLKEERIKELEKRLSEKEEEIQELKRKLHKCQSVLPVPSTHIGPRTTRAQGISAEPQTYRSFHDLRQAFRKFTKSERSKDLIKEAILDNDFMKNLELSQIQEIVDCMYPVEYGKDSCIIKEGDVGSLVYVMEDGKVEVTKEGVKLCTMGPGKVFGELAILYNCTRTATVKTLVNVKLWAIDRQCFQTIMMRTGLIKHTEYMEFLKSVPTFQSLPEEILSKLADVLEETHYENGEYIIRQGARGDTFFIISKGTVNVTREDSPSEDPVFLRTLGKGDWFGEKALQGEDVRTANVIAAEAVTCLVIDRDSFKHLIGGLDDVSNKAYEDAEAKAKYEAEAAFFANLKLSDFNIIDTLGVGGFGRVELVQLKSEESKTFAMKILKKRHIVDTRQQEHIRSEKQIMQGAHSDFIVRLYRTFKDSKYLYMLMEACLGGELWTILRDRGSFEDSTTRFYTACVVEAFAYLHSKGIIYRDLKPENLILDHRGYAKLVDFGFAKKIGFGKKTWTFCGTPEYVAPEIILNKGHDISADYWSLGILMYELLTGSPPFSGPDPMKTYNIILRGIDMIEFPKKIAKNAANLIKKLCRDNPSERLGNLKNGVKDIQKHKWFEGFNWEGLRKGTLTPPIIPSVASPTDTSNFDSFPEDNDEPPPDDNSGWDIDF

[9] = target: Tau-tubulin kinase 2 (Homo sapiens) (UniProt Q6IQ55); test: TTBK2(h) Eurofins kinase panel; conditions: Compound concentration 1.0 uM
[10] = target: Glycogen synthase kinase-3 beta (Homo sapiens) (UniProt P49841); test: GSK3β(h) Eurofins kinase panel; conditions: Compound concentration 1.0 uM
[11] = target: T3, Ephrin type-A receptor 3 (Homo sapiens) (UniProt P29320); test: EphA3(h) Eurofins kinase panel; conditions: Compound concentration 1.0 uM
T3 sequence (whole entry): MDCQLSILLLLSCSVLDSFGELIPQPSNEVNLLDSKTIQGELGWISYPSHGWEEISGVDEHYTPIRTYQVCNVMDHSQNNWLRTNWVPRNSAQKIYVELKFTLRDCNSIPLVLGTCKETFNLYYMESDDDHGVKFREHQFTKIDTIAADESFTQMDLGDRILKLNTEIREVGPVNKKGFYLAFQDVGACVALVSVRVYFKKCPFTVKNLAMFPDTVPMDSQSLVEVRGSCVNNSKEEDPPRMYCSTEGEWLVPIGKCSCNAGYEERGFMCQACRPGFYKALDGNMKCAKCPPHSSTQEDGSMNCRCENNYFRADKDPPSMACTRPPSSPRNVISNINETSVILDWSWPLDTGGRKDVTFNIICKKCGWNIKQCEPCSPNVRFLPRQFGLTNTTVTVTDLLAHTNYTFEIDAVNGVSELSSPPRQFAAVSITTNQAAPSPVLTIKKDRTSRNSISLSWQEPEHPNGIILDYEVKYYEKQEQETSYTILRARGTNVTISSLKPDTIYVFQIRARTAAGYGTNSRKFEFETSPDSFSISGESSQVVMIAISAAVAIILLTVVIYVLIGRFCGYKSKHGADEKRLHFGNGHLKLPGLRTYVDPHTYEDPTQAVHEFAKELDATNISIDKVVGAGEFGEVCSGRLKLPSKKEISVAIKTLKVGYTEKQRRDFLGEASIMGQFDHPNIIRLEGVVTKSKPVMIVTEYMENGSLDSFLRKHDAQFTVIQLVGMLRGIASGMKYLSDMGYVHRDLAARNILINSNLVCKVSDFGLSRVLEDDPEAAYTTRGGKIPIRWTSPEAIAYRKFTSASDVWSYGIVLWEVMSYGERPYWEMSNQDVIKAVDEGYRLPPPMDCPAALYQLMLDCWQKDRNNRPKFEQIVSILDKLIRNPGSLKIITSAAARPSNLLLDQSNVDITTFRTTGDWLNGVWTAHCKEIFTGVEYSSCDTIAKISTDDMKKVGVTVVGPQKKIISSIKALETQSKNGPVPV

Chain of Leucine-rich repeat serine/threonine-protein kinase 2 (Homo sapiens) (Q5S007 whole entry): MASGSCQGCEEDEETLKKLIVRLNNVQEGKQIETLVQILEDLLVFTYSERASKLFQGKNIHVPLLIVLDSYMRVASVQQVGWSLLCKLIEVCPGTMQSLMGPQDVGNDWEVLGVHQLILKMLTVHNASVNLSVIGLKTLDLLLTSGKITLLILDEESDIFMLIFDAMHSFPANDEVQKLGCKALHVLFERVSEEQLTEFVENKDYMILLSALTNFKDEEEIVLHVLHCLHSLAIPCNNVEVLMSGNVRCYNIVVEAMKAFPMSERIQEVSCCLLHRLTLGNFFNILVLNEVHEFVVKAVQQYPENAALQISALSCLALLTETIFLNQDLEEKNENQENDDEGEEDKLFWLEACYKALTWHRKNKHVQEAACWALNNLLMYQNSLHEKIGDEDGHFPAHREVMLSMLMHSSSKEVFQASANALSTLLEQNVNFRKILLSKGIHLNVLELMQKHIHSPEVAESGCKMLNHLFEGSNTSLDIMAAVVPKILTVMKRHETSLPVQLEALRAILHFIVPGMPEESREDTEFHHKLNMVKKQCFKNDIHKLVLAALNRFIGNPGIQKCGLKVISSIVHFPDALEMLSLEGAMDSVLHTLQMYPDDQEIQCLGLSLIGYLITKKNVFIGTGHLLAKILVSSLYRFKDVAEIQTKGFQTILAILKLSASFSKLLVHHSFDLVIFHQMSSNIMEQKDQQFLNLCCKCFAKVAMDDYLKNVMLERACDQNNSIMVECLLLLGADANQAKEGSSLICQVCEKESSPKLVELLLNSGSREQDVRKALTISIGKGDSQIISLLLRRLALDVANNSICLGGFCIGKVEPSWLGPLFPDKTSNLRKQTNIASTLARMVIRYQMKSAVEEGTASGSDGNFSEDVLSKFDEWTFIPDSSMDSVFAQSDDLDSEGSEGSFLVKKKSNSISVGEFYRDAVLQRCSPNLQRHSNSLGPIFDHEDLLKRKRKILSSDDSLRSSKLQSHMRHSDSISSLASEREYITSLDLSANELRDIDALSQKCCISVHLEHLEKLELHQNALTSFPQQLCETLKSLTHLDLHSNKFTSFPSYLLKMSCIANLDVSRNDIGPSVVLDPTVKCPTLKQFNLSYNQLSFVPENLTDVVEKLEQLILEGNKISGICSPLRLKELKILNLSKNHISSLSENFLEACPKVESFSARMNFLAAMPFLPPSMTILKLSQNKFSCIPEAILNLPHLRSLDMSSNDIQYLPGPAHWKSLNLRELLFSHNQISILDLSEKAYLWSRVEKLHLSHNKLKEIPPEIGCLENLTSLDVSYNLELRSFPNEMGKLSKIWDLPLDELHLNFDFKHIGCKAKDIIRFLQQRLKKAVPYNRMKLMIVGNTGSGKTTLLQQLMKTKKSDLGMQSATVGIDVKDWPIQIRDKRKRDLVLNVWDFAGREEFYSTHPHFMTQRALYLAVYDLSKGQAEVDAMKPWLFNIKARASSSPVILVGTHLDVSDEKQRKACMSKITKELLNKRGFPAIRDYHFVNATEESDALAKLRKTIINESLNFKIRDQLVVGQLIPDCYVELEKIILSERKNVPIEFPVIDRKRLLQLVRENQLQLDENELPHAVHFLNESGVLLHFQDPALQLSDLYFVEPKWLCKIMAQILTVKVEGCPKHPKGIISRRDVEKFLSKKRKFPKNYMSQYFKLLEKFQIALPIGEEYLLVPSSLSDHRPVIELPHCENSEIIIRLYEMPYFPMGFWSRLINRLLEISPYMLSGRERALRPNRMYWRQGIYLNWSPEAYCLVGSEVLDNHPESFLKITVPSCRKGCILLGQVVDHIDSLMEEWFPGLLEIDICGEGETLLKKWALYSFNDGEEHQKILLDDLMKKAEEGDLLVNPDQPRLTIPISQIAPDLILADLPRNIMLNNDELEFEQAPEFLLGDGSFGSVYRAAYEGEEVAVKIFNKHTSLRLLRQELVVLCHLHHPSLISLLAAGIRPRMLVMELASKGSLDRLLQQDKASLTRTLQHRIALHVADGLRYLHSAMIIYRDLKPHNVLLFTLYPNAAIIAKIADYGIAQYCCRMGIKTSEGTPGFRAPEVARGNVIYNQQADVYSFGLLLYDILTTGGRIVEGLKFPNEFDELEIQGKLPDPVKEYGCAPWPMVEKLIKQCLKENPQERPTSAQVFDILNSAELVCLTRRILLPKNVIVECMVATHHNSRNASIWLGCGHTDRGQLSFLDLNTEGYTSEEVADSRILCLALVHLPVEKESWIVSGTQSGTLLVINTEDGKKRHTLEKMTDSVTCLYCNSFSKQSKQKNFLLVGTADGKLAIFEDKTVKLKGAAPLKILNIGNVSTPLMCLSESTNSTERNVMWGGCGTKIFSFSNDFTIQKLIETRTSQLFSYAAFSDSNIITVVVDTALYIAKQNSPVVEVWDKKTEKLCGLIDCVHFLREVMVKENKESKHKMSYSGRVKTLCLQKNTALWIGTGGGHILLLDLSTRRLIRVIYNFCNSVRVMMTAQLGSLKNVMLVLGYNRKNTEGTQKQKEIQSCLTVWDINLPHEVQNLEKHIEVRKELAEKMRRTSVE

## CCc1ccccc1C(=O)Nc1n[nH]c2c(C)c(F)c(C3C(C#N)=C(C)N(C)C(C)=C3C#N)cc12 [BAY-3827]
[1]
  % residual kinase activity: 95%
[2]
  Cell Proliferation IC50: 25.8 µM
[3]
  % residual kinase activity: 23%
[4]
  % residual kinase activity: 72%
[5]
  % residual kinase activity: 96%
[6]
  % residual kinase activity: 98%
[7]
  % residual kinase activity: 110%
[8]
  % residual kinase activity: 68%
[9]
  % residual kinase activity: 108%
[10]
  % residual kinase activity: 58%
[11]
  % residual kinase activity: 112%
